Experimental data taken from ChEMBL document CHEMBL1127296, “Interaction of calcium channel antagonists with calcium: structural studies on nicardipine and its Ca2+ complex” (J Med Chem, 1994).

How the values were obtained:
[1] = Dissociation constant to estimate the calcium binding to the compound at the ratio of 2:1
[2] = Dissociation constant to estimate the calcium binding to the compound at the ratio of 1:1

## COC(=O)C1=C(C)NC(C)=C(C(=O)OCCN(C)Cc2ccccc2)C1c1cccc([N+](=O)[O-])c1 (configuration not stated)
[1]
  K2: 26 µM
[2]
  K1: 100 µM
